Assay results reported in patent publication US20030108574A1, “Carbohydrate-based whole cell cancer vaccines” (priority 2001, published 2003).
Values joined by “and” are separate entries in the source; they are usually repeats but may differ in a detail not shown here. Identical values can stand only once.

Tests used:
[1] = tested on: polysialic acid; details: RMA-S tumor-bearing mice, CY day 7, vaccine day 8
Experimental: ELISA. Total IgG antibody was measured by ELISA. Each well of ELISA plate was coated with HAS conjugates (0.5 μl/50 μl PBS/well) of NAc or NPr polysialic acids (11 kDa fractions), and blocked with 150 μl of 10%FBS in PBS. The plates were then washed three times with PBS and Tween20 (0.05%). Sera were added into well of plate after serial dilutions. The plates were kept for 1 hour at room temperature. After washing, anti-mouse IgG conjugates with horseradish peroxide (50 μl) were added into each well of plate and incubated for 1 hour at room temperature. Plates were further washed five times with PBS and Tween20 (0.05%) and 100 Ill of substrate 2,2′-azino-bis-(3-ethylbenthiazoline-6-sulfonic acid)(1 mg/ml) in 44 mM Na2HPO4, 20 mM citric acid and 0.3% H2O2. The plates were read at 405 nm with reference wavelength of 490 nm.
(§2) Vaccine preparation and administration. RMA-S cells were incubated with ManNPr (1 mg/ml) for 48 hour, and after washing with PBS, they were suspended in PBS and killed by heating at 70° C. for 10 min. Mice were injected subcutaneously with 2×10^6 RMA-S cells at the area of rear flank to develop a solid tumor. […] Whole cell vaccines (2×10^6 cells) were inoculated at day 8 and tumor growth was monitored routinely.

[2] = tested on: RMA-S tumor; test: Spleen metastasis by limiting dilution of spleen cells
Experimental: as §2
Limiting dilution-Cell suspension of the mouse spleen was prepared in RPMI 1640 medium. One fifth of each spleen suspension was used to initiate a 2-fold serial dilution with complete RPMI 1640 medium and the cells were cultured over 20 days. Cancer cells of metastasis of spleen were examined under the microscope.
One fifth of cell suspension of spleen was used to initiate a serial 2-fold dilution. Cells were cultured over 20 days and tumor cells from the spleen were examined under the microscope. The negative score was the cell culture that had no tumor cells in comparison of the positive score with tumor cells in cell culture.

[3] = tested on: P815 cells; test: Flow cytometry of polysialic acid and NPr polysialic acid expression on P815 cells incubated with ManNPr; assay type: cell-based, mouse; details: 1 mg/ml ManNPr
Experimental: (§1) Flow Cytometry. For flow cytometry, cells were incubated with MAbs 13D9 or 735 in 50 μl of RPMI+1% FBS on ice for 30 min. The cells were then washed and incubated with FITC-labelled secondary antibodies. After 30 min the cells were washed and fixed in 1% formaldehyde and assayed on a flow cytometer (Coulter Incorporation, Miami, Fla.).
To identify a cell line allogeneic to RMA-S, but which was also able to express polysialic acid, a number of allogeneic tumor cell lines were screened by flow cytometric analysis using MAb 735 (data not shown). […] FIG. 1B illustrates NPr polysialic acid expression on the surface of tumor cells for P815 cells incubated with 1 mg/ml ManNPr in cell culture. The cells were harvested at intervals and the expression of polysialic acid and its NPr analog were measured as described above. P815 cells were treated with ManNPr for different time periods, and after washing, they were stained with either MAb 735 or MAb 13D9. […] Obviously the transformation of polysialic acid on the surface of P815 cells follows a different pattern from RMA-S RMA and RBL-2H3 (9) cell lines that already have higher initial levels of expression of polysialic acid. Heat-killed P815 cells, pretreated with ManNPr, were then used as the allogeneic vaccine.

[4] = tested on: RMA-S cells; test: Flow cytometry of polysialic acid and NPr polysialic acid expression on RMA-S cells incubated with ManNPr; assay type: cell-based, mouse
Experimental: as §1
Preparation of vaccines. RMA-S cells derived from leukemic cell line RMA, are defective in transportation-associated proteins (12). However, RMA-S cells like those of the original RMA cells (9), can still incorporate ManNPr into their surface polysialic acid as shown by flow cytometric analysis. FIG. […] Following harvesting of the cells the expression of polysialic acid and its NPr analog were measured by flow cytometry using MAb 735 and MAb 13D9 respectively.
Heat-killed RMA-S cells pretreated with 1 mg/ml ManNPr for 48 h, were then used as the autologous vaccine.

Structure (SMILES): O=P1(N(CCCl)CCCl)NCCCO1 (centres unmarked) [CY, cyclophosphamide]
- sera binding to polysialic acid [1]: no binding
- Percentage of spleen metastasis ([2]; Table 3 experiment): 75%
- Metastasis of Spleen, Percentage ([2]; day 35, summary of two experiments): (78%)
- metastasis score of spleen of individual mouse (row head: Treatment) ([2]; one cell per mouse, spleen cells cultured over 20 days): + (3×) and −

Structure (SMILES): CCC(=O)N[C@@H]1C(O)O[C@H](CO)[C@@H](O)[C@@H]1O (some centres unmarked) [ManNPr, N-propionylmannosamine]
- binding of MAb 735 (polysialic acid) to the cell surface [3]: slight increase in the binding of MAb 735
- shift of fluorescence on staining with MAb 13D9 (NPr polysialic acid) ([3]; different time periods): large shift of fluorescence
- conversion of surface polysialic acid to NPr polysialic acid (staining with MAb 13D9) ([4]; ManNPr at different concentrations): significantly converted to NPr polysialic acid
- binding of MAb 735 (polysialic acid) to the cell surface ([4]; increasing amounts of ManNPr): binding to the cell surface became weaker
